# Test results published in patent US8772250B2, “Compositions and methods for treating ischemia and ischemia-reperfusion injury” (Ischemix, LLC, priority 2010, dated 2014).
# Read-outs that look alike come from different tables or passages of the source. Marks after values point to notes of the source that are not given here.
# What was measured:
# IGF1R = IGF1R (Homo sapiens, UniProt P08069); assay: IGF1R tyrosine kinase activation assay (mobility shift); format: biochemical
# Source text: IGF1R and Src tyrosine kinases have endogenous levels of activity in the presence of ATP and substrate. This activity was readily measured using a mobility shift assay using a Caliper LabChip® 3000 and a 12-sipper LabChip® to detect both phosphorylated and unphosphorylated substrate (Caliper Life Sciences, Discovery Alliances and Services Division). Enzyme, substrate and ATP concentrations were optimized for each assay. For the IGF1R assay, the final concentrations of the enzyme, peptide and ATP were 20 nM, 1.5 μM, and 1220 μM, respectively. For the Src assay, the final concentrations of the enzyme, peptide and ATP were 2.5 nM, 1.5 μM, and 17 μM, respectively.
# RLip-EA-OH was evaluated at multiple concentrations for an effect on activation of IGF1 receptor kinase (IGF1R) and Src. The compounds tested activated IGF1R and Src with different selectivities.
# [1] = tested on: RIP-deficient Jurkat cells; assay: Cell survival assay, TNFα-induced apoptosis; format: cell-based, human; settings: for % Survival: 10 ng/mL TNFα, 24 h
# Experimental: The ability of RLip-EA-OH to prevent apoptosis and promote cell survival was assessed using Jurkat cells deficient in Receptor-Interacting Protein (RIP), a cell death mediating protein. The Jurkat cell line is derived from human T-Lymphocytes. RIP-deficient Jurkat cells are susceptible to apoptosis when treated with tumor necrosis factor alpha (TNFα). These cells were treated with either vehicle or RLip-EA-OH and then apoptosis was triggered with TNFα. Cell survival was assessed to evaluate if RLip-EA-OH protected the cells against TNFα induced apoptosis.
# RIP-deficient Jurkat cells were seeded into 96 well plates at 20,000 cells per well and treated for 2 hours with RLip-EA-OH (6 wells for each concentration) or DMSO. After pretreatment, 3 wells for each dose of drug were exposed to 10 ng/mL human recombinant TNFα (TNFα was not added to the other 3 wells). Twenty four hours after TNFα treatment, ATP cell viability was determined (CellTiter-Glo, Promega) and the values were used to calculate % survival of the cells.
# myocardial I/R injury = assay: Incidence of acute cardiac dysfunction and mortality in rat model of myocardial I/R injury; format: in vivo
# Experimental: The incidence of acute cardiac dysfunction associated with arrhythmia and cardiac arrest requiring intervention and the incidence of mortality due to these co-morbidities was examined in the rat model of myocardial I/R injury described herein for different dosages and dosage regimens for administering RLip-EA-OH. In vivo experiments were performed as described in Example 8 using dosage intervals described in Example 10. Treatments (i.e., vehicle, RLip-EA-OH) were administered as a left intra-ventricular injection, IV bolus, IV infusion, or orally. Specifically, the incidence of non-self-resolving cardiac dysfunction (i.e., extended fibrillation arrhythmia, sudden cardiac arrest) during ischemia and requiring intervention (direct mechanical cardiac resuscitation), and mortality associated with cardiac dysfunction were observed.
# [2] = Pharmacokinetic evaluation in rats; format: in vivo; settings: both sexes, rat
# Experimental: To evaluate systemic exposure to RLip-EA-OH, groups of rats were given single intravenous infusion doses of vehicle (2/sex) or RLip-EA-OH at the same dose levels of 30, 100, or 200 mg/kg (6/sex/group). For the vehicle-treated group, blood samples were collected from all rats at pre-dose and at 30 minutes (+2 minutes) post-dose only. For RLip-EA-OH-treated groups, blood samples were collected from three rats/sex/group at 10 minutes, 30 minutes, 45 minutes and 1, 2, 3, and 4 hours (±2 minutes) after dosing.
# Administration was by IV infusion into a surgically-placed catheter in the femoral vein using a syringe pump at a rate of injection no greater than 0.2 mL/min. The dose volume for each animal was based on the most recent body weight measurement and doses were rounded to the nearest 0.1 mL. […]
# Samples were placed in tubes containing K3EDTA and stored on ice until centrifuged, under refrigeration, for at least ten minutes at 3000 rpm. After centrifugation, plasma was removed and stored frozen at or below minus 70° C. until shipped to BASi in West Lafayette, Ind. for analysis.
# Plasma RLip-EA-OH concentrations were measured at BASi in West Lafayette, Ind., using a validated LC/MS/MS method with positive turbo ion spray, in the multiple reaction-monitoring mode. The quantifiable range for the assay was 0.05 to 50 μg/mL and QC samples were included at 0.15, 10 and 37.5 μg/mL. Toxicokinetic analysis was performed using WinNonlin version 5.1 by calculation of standard parameters.
# [3] = tested on: myocardial ischemia-reperfusion injury; assay: Rat model of myocardial I/R injury (MI/AR ratio); format: in vivo; settings: for % Reduction in MI/AR Compared to Vehicle: rat IV
# Chain of IGF1R (P08069 959-1367 limits assumed, species assumed): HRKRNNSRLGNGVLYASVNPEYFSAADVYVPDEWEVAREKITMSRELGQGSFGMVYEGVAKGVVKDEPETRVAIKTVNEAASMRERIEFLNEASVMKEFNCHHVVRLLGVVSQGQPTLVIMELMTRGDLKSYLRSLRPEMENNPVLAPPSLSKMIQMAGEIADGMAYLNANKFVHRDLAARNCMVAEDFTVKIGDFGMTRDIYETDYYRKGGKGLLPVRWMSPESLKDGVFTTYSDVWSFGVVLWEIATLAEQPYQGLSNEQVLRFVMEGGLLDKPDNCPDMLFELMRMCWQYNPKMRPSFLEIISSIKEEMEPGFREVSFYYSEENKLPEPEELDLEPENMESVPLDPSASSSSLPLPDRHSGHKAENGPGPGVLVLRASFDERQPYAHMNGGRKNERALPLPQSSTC
smiles,measurement,setting,value
"C[C@H](NC(=O)[C@H](CCC(=O)O)NC(=O)CCCC[C@@H]1CCSS1)C(=O)O [RLip-EA-OH, N-(R)-lipoyl-L-glutamyl-L- alanine]",IGF1R % activity above control (±SEM),IGF1R; 100 μM,42 ± 1%
same,IGF1R % Increase in activity above vehicle control,IGF1R; 300 μM,33 ± 3%
same,% Survival,[1]; 0.006 μM,84%
same,% Survival,[1]; 0.012 μM,95%
same,% Survival,[1]; 0.05 μM,96%
same,% Survival,[1]; 0.1 μM,98%
same,% Survival,[1]; 0.2 μM,101%
same,% Survival,[1]; 1.5 μM,106%
same,effect on TNFα induced cell death,[1]; RIP-deficient Jurkat cells,prevented TNFα induced cell death in a dose dependent manner
same,Intervention due to Arrhythmia/Arrest (%),myocardial I/R injury; Multi-dose (2x),3\19 (16) %
same,Mortality (%),myocardial I/R injury; Multi-dose (2x),1\19 (5) %
same,Intervention due to Arrhythmia/Arrest (%),myocardial I/R injury; Multi-dose (3x),4\18 (22) %
same,Mortality (%),myocardial I/R injury; Multi-dose (3x),1\18 (5) %
same,Intervention due to Arrhythmia/Arrest (%),myocardial I/R injury; Single dose,6\17 (35) %
same,Mortality (%),myocardial I/R injury; Single dose,2\17 (12) %
same,AUC(0-inf),"[2]; plasma, 30 mg/kg IV infusion",~7000 ng·h/mL
same,Cmax,"[2]; plasma, 30 mg/kg IV infusion",20000 ng/mL
same,clearance,"[2]; plasma, 30 mg/kg IV infusion",75 mL/min/kg
same,Vd,"[2]; plasma, 30 mg/kg IV infusion, read-out: Vss",1.2 L/kg
same,half-life,"[2]; plasma, 30 mg/kg IV infusion, read-out: t½ (converted)",9 min
same,half-life,"[2]; serum, intravenous, rats, dose of 30 mg/kg, read-out: serum half-life",~9 min
same,efficacy in a rat model of I/R injury,"[3]; intravenously (bolus IV and infusion), orally and intra-cardiac",efficacious
same,% Reduction in MI/AR Compared to Vehicle,[3]; Entry 1: 1 mg/kg at −0.25 h,3%
same,% Reduction in MI/AR Compared to Vehicle,[3]; Entry 2a: 3 mg/kg (bolus) at −0.25 h,6%
same,% Reduction in MI/AR Compared to Vehicle,[3]; Entry 3a: 5 mg/kg (bolus) at −0.25 h,27* %
same,% Reduction in MI/AR Compared to Vehicle,[3]; Entry 3b: 5 mg/kg (1 h infusion) at −1 h,27* %
same,% Reduction in MI/AR Compared to Vehicle,[3]; Entry 4a: 10 mg/kg (bolus) at −0.25 h,33* %
same,% Reduction in MI/AR Compared to Vehicle,[3]; Entry 4b: 10 mg/kg (1 h infusion),33* %
same,% Reduction in MI/AR Compared to Vehicle,[3]; Entry 6: 20 mg/kg at −0.25 h,9%
same,% Reduction in MI/AR Compared to Vehicle,[3]; Entry 8: 10 mg/kg at −6 h,24* %
same,% Reduction in MI/AR Compared to Vehicle,[3]; Entry 9: 10 mg/kg at −24 h,24* %
same,% Reduction in MI/AR Compared to Vehicle,[3]; Entry 10: 20 mg/kg at −3 h,26* %
same,% Reduction in MI/AR Compared to Vehicle,[3]; Entry 11: 40 mg/kg at −3 h,17%
same,% Reduction in MI/AR Compared to Vehicle,[3]; Entry 14: 10 and 10 mg/kg at −24 and −3 h,32* %
same,% Reduction in MI/AR Compared to Vehicle,[3]; Entry 15: 10 and 10 and 10 mg/kg at −24 and −3 and −0.25 h,42* %
same,% Reduction in MI/AR Compared to Vehicle,[3]; Entry 17: 10 and 10 mg/kg at −3 h and at reperfusion,34* %
same,reduction of myocardial tissue death vs saline vehicle,"[3]; rat, 1 mg/kg IC, 15 minutes pre-occlusion",38%
same,Reduction of MI:AR Ratio Relative to Vehicle (%),"[3]; rat, 1 mg/kg IC, Table 7 meta analysis",31 ± 3 %
same,Reduction of MI:AR Ratio Relative to Vehicle (%),"[3]; rat, 1 mg/kg IC, Table 8",31 ± 3 %
same,reduction of myocardial tissue death vs saline vehicle,"[3]; rat, 1 mg/kg IC, at reperfusion (within 1 minute after reperfusion)",32%
same,reduction of myocardial tissue death vs saline vehicle,"[3]; rat, 1 mg/kg IC, during occlusion (15 minutes after occluding)",24%
same,MI:AR ratio,"[3]; rat, 1 mg/kg IC, meta analysis n=64",0.250
same,reduction of MI/AR vs saline vehicle,"[3]; rat, 1 mg/kg IC, meta analysis n=64 vs n=54, p<0.001",33%
same,MI/AR,"[3]; rat, 1 mg/kg single bolus IC 15 minutes prior to ischemia",0.337
same,MI/AR,"[3]; rat, 2 mg/kg single bolus IC 15 minutes prior to ischemia",0.290
same,MI/AR (meta-analysis),"[3]; rat, B—Single (10_0)",0.261
same,MI/AR (meta-analysis),"[3]; rat, C—Multiple (10_10)",0.207
same,effect of different doses on myocardial tissue death (MI/AR),"[3]; rat, IV or IC, 15 minutes pre-occlusion",significantly (p<0.05) reduced myocardial tissue death and was dose dependent
same,% Reduction in MI/AR compared to vehicle controls,"[3]; rat, Table 11: 10 mg/kg at −0.25 h",28%
same,% Reduction in MI/AR compared to vehicle controls,"[3]; rat, Table 11: 10 and 10 mg/kg at −3 and −0.25 h",43* %
same,reduction in MI damage,"[3]; rat, single 10 mg/kg IV bolus 15 min before ischemia or at 3 h before ischemia",~33%
same,reduction of MI (meta-analysis),"[3]; rat, single bolus dose 10 mg/kg at −3 h",29%
